# From ChEMBL document CHEMBL1201862, “PubChem BioAssay data set” (2004)
# Active and inactive are the calls of the source.
# Tests used:
# [1] = biological target: T1, Heat shock factor protein 1 (Mus musculus, UniProt P38532); test: decrease of HSF1-responsive luciferase luminescence – cell-based, NIH3T3, dose retest, confirmation (AID 2382); type: functional;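 note: NIH3T3 fibroblasts with HSF1-driven luciferase reporter stressed by proteasome inhibitor MG132; luminescence from HSF1-driven luciferase expression after 8 hours of MG132 stress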
# T1 sequence (P38532 whole entry): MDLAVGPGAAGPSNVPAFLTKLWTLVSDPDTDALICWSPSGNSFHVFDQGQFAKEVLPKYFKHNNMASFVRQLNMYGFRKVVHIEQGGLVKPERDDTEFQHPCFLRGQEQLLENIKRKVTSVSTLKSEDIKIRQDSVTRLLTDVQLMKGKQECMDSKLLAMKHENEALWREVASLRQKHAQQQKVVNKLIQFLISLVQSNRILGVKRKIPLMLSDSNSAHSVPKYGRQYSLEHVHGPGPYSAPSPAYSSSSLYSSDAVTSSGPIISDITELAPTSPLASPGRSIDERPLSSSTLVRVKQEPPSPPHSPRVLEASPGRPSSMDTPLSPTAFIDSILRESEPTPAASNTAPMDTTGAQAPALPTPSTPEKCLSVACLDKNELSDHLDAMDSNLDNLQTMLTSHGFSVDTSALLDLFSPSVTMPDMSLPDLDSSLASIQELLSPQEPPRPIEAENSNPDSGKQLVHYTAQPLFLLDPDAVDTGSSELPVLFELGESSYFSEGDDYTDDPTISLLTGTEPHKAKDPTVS
# Protein skinhead-1 = biological target: T2, Protein skinhead-1 (Caenorhabditis elegans, UniProt P34707); type: functional
# T2 sequence (P34707 whole entry): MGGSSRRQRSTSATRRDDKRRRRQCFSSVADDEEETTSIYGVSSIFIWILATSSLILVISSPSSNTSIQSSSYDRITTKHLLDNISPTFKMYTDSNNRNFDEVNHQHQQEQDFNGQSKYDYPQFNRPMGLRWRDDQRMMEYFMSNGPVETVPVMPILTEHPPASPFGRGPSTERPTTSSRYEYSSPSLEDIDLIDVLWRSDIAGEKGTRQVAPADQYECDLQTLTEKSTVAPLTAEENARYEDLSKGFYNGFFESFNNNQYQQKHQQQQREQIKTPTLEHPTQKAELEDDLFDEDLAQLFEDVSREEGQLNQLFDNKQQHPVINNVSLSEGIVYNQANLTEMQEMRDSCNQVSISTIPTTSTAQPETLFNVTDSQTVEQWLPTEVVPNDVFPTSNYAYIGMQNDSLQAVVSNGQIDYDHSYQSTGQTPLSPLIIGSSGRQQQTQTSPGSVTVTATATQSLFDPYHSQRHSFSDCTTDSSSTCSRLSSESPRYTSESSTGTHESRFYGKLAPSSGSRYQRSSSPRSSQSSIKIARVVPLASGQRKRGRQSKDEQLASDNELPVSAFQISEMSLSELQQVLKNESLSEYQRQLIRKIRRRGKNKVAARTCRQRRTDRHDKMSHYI
# cells = type: functional
# [2] = biological target: T3, RNA-binding protein pos-1 (Caenorhabditis elegans, UniProt G5EF15); test: disruptors of C. elegans POS-1 RNA interaction – biochemical, fluorescence polarization, dose response (AID 1964);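 note: purified POS-1 fused to maltose binding protein made in E. coli; potency of compounds blocking POS-1 binding to fluorescent RNA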
# T3 sequence (G5EF15 whole entry): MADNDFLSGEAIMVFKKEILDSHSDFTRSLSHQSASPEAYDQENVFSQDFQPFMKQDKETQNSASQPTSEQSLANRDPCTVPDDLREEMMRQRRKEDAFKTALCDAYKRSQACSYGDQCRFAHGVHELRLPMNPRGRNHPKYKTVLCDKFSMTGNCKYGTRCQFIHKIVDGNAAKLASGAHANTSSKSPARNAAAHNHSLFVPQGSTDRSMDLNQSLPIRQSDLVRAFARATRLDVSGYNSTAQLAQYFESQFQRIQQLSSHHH
# [3] = biological target: T4, Zinc finger protein mex-5 (Caenorhabditis elegans, UniProt Q9XUB2); test: potency of MEX-5 RNA-binding blockers – biochemical, C. elegans, fluorescence polarization, dose response (AID 1960)
# T4 sequence (Q9XUB2 whole entry): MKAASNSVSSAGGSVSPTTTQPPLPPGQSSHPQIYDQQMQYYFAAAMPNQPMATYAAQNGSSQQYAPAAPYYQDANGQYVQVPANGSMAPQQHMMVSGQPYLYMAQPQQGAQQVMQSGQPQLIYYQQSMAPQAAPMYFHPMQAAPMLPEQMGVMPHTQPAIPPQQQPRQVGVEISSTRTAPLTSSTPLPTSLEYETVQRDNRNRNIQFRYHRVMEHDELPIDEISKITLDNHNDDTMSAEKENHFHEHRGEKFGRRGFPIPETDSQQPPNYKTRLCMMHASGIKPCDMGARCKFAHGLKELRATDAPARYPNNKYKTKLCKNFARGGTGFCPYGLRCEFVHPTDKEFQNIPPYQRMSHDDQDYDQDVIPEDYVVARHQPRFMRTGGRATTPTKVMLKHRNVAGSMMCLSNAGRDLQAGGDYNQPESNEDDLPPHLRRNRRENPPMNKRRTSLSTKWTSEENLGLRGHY
# [4] = biological target: Glucose-6-phosphate 1-dehydrogenase (Homo sapiens, UniProt P11413); test: inhibition of Homo sapiens G6PD, dose series – biochemical, fluorescence, selectivity assay for P. falciparum G6PD inhibitor project, dose response (AID 504792); type: functional
# Glucose-6-phosphate 1-dehydrogenase, sequence (P11413 whole entry): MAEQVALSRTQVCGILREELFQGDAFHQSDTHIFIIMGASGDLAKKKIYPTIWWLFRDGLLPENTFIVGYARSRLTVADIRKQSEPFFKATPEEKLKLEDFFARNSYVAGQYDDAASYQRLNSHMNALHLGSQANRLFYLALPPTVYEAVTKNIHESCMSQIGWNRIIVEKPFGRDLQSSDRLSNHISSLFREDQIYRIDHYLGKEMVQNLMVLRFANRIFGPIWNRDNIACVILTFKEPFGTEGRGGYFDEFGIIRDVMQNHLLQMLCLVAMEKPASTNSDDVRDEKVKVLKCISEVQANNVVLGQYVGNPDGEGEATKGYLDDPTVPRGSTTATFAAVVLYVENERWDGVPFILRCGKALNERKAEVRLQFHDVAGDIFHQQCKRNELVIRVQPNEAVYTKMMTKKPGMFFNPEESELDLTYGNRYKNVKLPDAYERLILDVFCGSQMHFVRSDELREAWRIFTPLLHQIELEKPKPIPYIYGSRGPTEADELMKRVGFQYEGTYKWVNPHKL
# [5] = NIH-3T3 fibroblast cytotoxicity, dose response, cytotoxicity control, cell-based, fluorescence, Alamar Blue, secondary assay (AID 2327); type: functional;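 note: NIH-3T3 mouse fibroblasts cultured with fluconazole at 8 µg/mL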
# [6] = fluconazole-exposed Candida albicans growth modulators – fluorescence, retest, confirmation (AID 2467); type: functional, cell-based
# Genome polyprotein = Genome polyprotein (dengue virus type 2, UniProt P29990); test: flavivirus cap methylation enzyme inhibition – biochemical, confirmation dose response, primary screen (AID 588689); type: functional
# Genome polyprotein, sequence (P29990 2492-3391 limits assumed): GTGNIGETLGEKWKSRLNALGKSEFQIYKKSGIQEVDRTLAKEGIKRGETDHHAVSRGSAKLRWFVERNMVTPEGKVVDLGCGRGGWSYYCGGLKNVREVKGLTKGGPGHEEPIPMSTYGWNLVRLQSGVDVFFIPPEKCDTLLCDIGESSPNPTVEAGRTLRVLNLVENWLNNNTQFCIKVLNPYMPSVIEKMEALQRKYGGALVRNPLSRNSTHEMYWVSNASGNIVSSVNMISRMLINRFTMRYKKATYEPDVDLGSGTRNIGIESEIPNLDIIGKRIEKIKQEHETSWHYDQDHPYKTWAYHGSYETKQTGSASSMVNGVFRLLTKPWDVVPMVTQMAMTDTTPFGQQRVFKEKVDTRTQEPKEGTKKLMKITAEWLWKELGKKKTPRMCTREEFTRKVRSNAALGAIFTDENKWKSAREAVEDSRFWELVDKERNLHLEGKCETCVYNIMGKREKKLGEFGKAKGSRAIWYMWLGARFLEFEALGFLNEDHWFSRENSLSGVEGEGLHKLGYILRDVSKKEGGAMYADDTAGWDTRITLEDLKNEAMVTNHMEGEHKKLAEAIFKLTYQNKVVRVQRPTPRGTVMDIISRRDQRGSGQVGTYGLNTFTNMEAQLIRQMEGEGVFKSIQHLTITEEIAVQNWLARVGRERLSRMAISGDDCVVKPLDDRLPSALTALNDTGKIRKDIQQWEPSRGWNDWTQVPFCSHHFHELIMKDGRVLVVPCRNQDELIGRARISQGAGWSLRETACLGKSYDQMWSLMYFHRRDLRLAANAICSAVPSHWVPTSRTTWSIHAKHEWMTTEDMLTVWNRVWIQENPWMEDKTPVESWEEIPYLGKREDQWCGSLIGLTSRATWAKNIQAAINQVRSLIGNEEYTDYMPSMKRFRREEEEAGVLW
# [7] = biological target: T5, Carboxy-terminal domain RNA polymerase II polypeptide A small phosphatase 1 (Homo sapiens, UniProt Q9GZU7); test: CTDSP1 inhibitors, concentration-response, biochemical, absorbance readout, ultra-high-throughput screen actives (AID 540297); type: functional
# T5 sequence (Q9GZU7 whole entry): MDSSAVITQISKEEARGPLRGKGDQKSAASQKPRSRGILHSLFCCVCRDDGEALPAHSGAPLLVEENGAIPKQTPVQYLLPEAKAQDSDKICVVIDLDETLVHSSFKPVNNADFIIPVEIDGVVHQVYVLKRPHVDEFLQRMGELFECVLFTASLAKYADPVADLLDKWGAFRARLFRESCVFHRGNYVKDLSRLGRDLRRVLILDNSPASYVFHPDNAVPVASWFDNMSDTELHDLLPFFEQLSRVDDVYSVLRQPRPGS
# BJ [8] = test: BJ-TERT fibroblast viability loss – cell-based, RAS-independent, luminescence, dose response (AID 1933); type: functional; details: Homo sapiens
# BJ [9] = test: cells; type: functional, cell-based; details: Homo sapiens
# BJ [10] = test: BJ-TERT-LT-ST fibroblast viability loss – cell-based, RAS-independent, luminescence, dose response (AID 1935); type: functional; details: Homo sapiens;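 note: BJ fibroblasts immortalized with TERT plus LT and ST oncogenes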
# [11] = DRD fibroblast viability loss – cell-based, non-viral oncogenic, luminescence, dose response (AID 1934); type: functional; details: Homo sapiens
# [12] = biological target: T1, Heat shock factor protein 1; test: enhancement of HSF1-driven luciferase signal – cell-based, NIH3T3, luminescence, dose retest, confirmation (AID 435004); type: functional;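 note: stress induced by proteasome inhibitor MG132 added 30 min after compound; luciferase reporter driven by HSF1 response element in NIH3T3 cells; actives raise luminescence as potentiators of the MG132 stress response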
# [13] = biological target: T6, Rac GTPase-activating protein 1 (Homo sapiens, UniProt Q9H0H5); test: blockers of MgcRacGAP-driven Rac1 GTP hydrolysis – biochemical, ADP Hunter fluorescence, primary and confirmatory, confirmation (AID 624330); type: functional
# T6 sequence (Q9H0H5 whole entry): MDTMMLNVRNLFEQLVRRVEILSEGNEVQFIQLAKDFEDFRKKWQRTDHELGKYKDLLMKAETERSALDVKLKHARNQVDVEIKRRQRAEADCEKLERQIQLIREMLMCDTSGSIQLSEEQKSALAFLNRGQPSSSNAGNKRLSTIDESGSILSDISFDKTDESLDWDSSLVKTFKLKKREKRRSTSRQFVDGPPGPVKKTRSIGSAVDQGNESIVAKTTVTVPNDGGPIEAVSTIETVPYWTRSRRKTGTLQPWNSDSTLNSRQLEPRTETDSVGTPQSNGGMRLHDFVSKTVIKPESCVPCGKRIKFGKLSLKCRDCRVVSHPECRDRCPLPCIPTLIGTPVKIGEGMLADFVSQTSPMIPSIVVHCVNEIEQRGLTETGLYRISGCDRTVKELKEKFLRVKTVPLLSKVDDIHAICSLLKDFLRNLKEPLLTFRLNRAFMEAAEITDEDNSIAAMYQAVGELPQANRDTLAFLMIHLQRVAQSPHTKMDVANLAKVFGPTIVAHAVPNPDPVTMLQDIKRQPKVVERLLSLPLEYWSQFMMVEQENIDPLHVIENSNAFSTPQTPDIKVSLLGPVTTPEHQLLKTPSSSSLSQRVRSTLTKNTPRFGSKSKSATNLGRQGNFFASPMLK
# INS1 = test: INS-1E survival protection against cytokine death – cell-based, luminescence, retest, dose response (AID 449756); type: functional; details: Rattus norvegicus, INS1;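 note: cell death triggered by IL-1 beta plus TNF-alpha plus IFN-gamma mixture; protective hits raise ATP signal compared with cytokine alone wells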
# [14] = viability of uninfected HEp-2 cells – cell-based, HTS, cytotoxicity control for RSV inhibitor project, dose response (AID 2410); type: functional; details: human respiratory syncytial virus
# [15] = P. falciparum Dd2 growth inhibitors, dose response, SYBR Green, cherry-picked samples (AID 1159567); type: functional, cell-based
compound,measurement,setting,value
c1ccc(OCCSc2nc3ccccc3o2)cc1,EC50,[1],> 195 µM (not active)
same,IC50,Protein skinhead-1,32.4 µM (active)
Cc1ccc(OC(=O)c2sc3ncn(C)c(=O)c3c2C)cc1,IC50,cells,15.2 µM (active)
Cc1cc(C(=O)O)ccc1-n1c(C)cc(C=C2C(=O)c3ccccc3C2=O)c1C,EC50,[2],> 300 µM (not active)
same,EC50,[3],> 300 µM (not active)
same,IC50,[4],> 80 µM (inactive)
Cc1ccc(C(=O)CC(=O)COc2ccc(Cl)cc2)cc1,EC50,[5],> 150 µM (inconclusive)
same,EC50,[6],1.62 µM (active)
O=C(O)c1ccc2c(c1Nc1ccccc1)C(=O)c1ccccc1C2=O,IC50,Genome polyprotein,> 100 µM (active)
O=C(Nc1cccc(S(=O)(=O)NC2=NCCCCC2)c1)C1COc2ccccc2O1 (stereo unspecified),IC50,[7],5.75 µM (active)
O=C1/C(=C/c2ccccc2Cl)SC(=S)N1CCC(=O)N1CCCCC1CCO (stereo unspecified),EC50,BJ [8],19 µM (active)
same,EC50,BJ [9],> 150 µM (inconclusive)
same,EC50,BJ [10],> 150 µM (not active)
same,EC50,[11],45.3 µM (active)
same,EC50,[12],> 260 µM (inactive)
O=C(NN=Cc1cc(Br)c(O)c(Br)c1)c1ccccc1NS(=O)(=O)c1cccs1,IC50,Genome polyprotein,27.7 µM (active)
CCn1c(COc2ccc(=O)n(-c3ccccc3)n2)nnc1SCc1cccc(OC)c1,EC50,[5],> 160 µM (inactive)
same,EC50,[6],> 38 µM (not active)
COc1ccc(C(O)(C(=O)NNc2ccc(C)cc2)c2cccs2)cc1 (stereo unspecified),EC50,[5],> 160 µM (inactive)
same,EC50,[6],> 38 µM (not active)
same,EC50,[12],> 260 µM (inactive)
O=c1[nH]c2ccc(NCc3ccccc3OCc3ccc(Cl)cc3)cc2[nH]1,IC50,[4],> 80 µM (inactive)
CCOC(=O)C(C)On1c(-c2ccc(Cl)cc2)nc2ccc([N+](=O)[O-])cc21 (stereo unspecified),IC50,Protein skinhead-1,> 100 µM (inactive)
COc1cccc(C(=O)C2CCCN(Cc3cccc4c3OCO4)C2)c1 (stereo unspecified),EC50,[5],> 160 µM (inactive)
same,EC50,[6],> 38 µM (not active)
CC(C)OP(=O)(c1ccc(N(C)C)cc1)C(O)c1ccccc1 (stereo unspecified),EC50,[5],> 160 µM (inconclusive)
same,EC50,[6],3.06 µM (active)
Cc1ccc(C(C2=C(O)CC(C)(C)CC2=O)C2C(=O)CC(C)(C)CC2=O)o1 (stereo unspecified),IC50,Genome polyprotein,60 µM (active)
same,IC50,[13],56.4 µM (active)
Cc1ccc2nc(C)c3c(c2c1)SCC3,IC50,cells,24.6 µM (active)
C[N+]1(C)CC2([N+](=O)[O-])CC=C(Oc3ccccc3)C([N+](=O)[O-])(C2)C1 (stereo unspecified),IC50,[7],6.82 µM (active)
CCOC(=O)N1CCC(N2Cc3cccc(C(=O)NCc4ccc5c(c4)OCO5)c3C2=O)CC1,IC50,[7],15 µM (active)
Cc1c(C(=O)NNC(=O)c2csc(N3CCOCC3)n2)oc2ccccc12,IC50,cells,13.2 µM (active)
COC(=O)COc1cccc(NC(=O)c2cccc(C)c2)c1,IC50,cells,17.6 µM (active)
N=c1oc2ccccc2cc1C(=O)NC1CCCCCC1,IC50,cells,> 50 µM (active)
O=C1N=C(Nc2ccc(Cl)cc2)/C(=C/c2ccco2)S1,IC50,[7],1.86 µM (active)
COc1cc(NCCCn2ccc(NC(=O)OCc3ccccc3)nc2=O)cc(OC)c1OC,IC50,[4],> 80 µM (inactive)
CCN(CC)c1ccc(/N=C/c2ccc([N+](=O)[O-])o2)cc1,EC50,[5],> 150 µM (inactive)
same,EC50,[6],> 38 µM (not active)
same,AC50,INS1,43.9 µM (active)
Cc1ccc(NC(=O)COc2ccc(/C=N\NC(=O)c3cccnc3)cc2)cc1C,IC50,[7],10 µM (active)
CC(C)(C)C(=O)O/N=C1/C(=O)N(c2ccccc2)c2ccccc21,CC50,[14],26.5 µM (active)
same,IC50,[7],7.51 µM (active)
C/C(=N/Nc1ccc(C)cc1)C1(C)N(O)C(C)(C)C(c2ccco2)=[N+]1[O-] (stereo unspecified),EC50,[5],66.1 µM (inconclusive)
same,EC50,[6],> 38 µM (not active)
CCCC#Cc1ccc2c(c1)[C@@H]1[C@@H](CCN1S(=O)(=O)c1ccccc1C)[C@@H](CO)N2,AC50,[15],7.51 µM (active)
N#Cc1cccc(-c2ccc3c(c2)[C@@H]2[C@@H](CCN2Cc2cncnc2)[C@H](CO)N3)c1,AC50,[15],6.32 µM (active)
COc1cccc(CN2C[C@@H]3N[C@H](C2)[C@H]3c2ccc(-c3ccncc3)cc2)c1,AC50,[15],7.31 µM (active)
CCC(=O)N1[C@H](CO)[C@@H](c2ccccc2-c2cccc(C)c2)[C@@H]1C#N,AC50,[15],> 42 µM (inactive)
C/C=C/c1ccc([C@@H]2[C@H](CO)N(CC3CC3)C23CN(C(=O)c2ccc4c(c2)OCO4)C3)cc1,AC50,[15],4.44 µM (active)
COc1ccccc1C#Cc1ccc([C@@H]2[C@H](C#N)N(C(=O)C3CCCC3)[C@H]2CO)cc1,AC50,[15],5.17 µM (active)
